From US6046228A, “Anti-viral pharmaceutical compositions containing saturated 1,2-dithiaheterocyclic compounds and uses thereof” (priority 1999, dated 2000)
Like-named read-outs stand apart in the source and are kept apart here.

Assays:
HIV-1RF = experiment: XTT cytoprotection (cytopathicity) anti-HIV assay, CEM-SS cells; assay type: cell-based; conditions: for EC50: Human immunodeficiency virus 1, CEM-SS; for antiviral activity / efficacy: in words
Protocol: (§1) Initial anti-HIV screening was performed with CEM-SS cells and HIV-1RFusing the XTT cytoprotection assay as previously described (Weislow et al., J. National Cancer Inst. 81: 577-586, (1989)). HIV-1 isolates included common laboratory stains (RF, IIIB and MN), as well as a panel of HIV-1 clinical isolates (Cushman et al., J. Med. Chem. 37: 3040-3050, (1994)). The pyridone-resistant HIV-1A17 isolate (Nunberg et al., J. Virol., 65: 4887-4892 (1991)) was obtained from Emilio Emini at Merck Sharpe and Dohme Laboratories. Phytohemagglutinin-stimulated human peripheral blood lymphocytes (PBLs) and fresh monocyte-macrophage (Mono/MF) cultures were prepared and utilized in antiviral assays as previously described (Rice et al., Proc. Nat'l. Academy Science, USA 90: 9721-9724, (1993)); (Cushman et al., J. Med. Chem. 37: 3040-3050, (1994)). EC50 values for these cultures indicate the drug concentration that provided a 50% reduction in viral p24 production. […] The compounds can be synthesized according to the teachings of Singh et al., Sulfur Letters 8: 107-114, (1988). […] MT-2, MT-4, U1, HeLa-CD4-LTR-β-gal and 174xCEM cells were obtained from the AIDS Research and Reference Program (National Institute of Allergy and Infectious Disease, National Institutes of Health, Bethesda, Md. USA), as were the HIV-2MS and the AZT-resistant HIV-1G910-6 isolates.
(§2) Racemate and enantiomers of the cis-1,1-dioxo[1,2]dithiane-4,5-diol were synthesized and evaluated for antiviral activity in the XTT assay as described hereinabove.

CEM-SS cells = experiment: XTT assay, cytotoxicity (IC50), CEM-SS cells; assay type: cell-based; conditions: Homo sapiens, CEM-SS, cytotoxicity, CEM-SS cells; read-out: XTT Assay IC50
Protocol: as §1, §2

HIV-1ADA = experiment: antiviral assay in monocyte-macrophage cultures (p24); assay type: cell-based
Protocol: Initial anti-HIV screening was performed with CEM-SS cells and HIV-1RFusing the XTT cytoprotection assay as previously described (Weislow et al., J. National Cancer Inst. 81: 577-586, (1989)). HIV-1 isolates included common laboratory stains (RF, IIIB and MN), as well as a panel of HIV-1 clinical isolates (Cushman et al., J. Med. Chem. 37: 3040-3050, (1994)). The pyridone-resistant HIV-1A17 isolate (Nunberg et al., J. Virol., 65: 4887-4892 (1991)) was obtained from Emilio Emini at Merck Sharpe and Dohme Laboratories. Phytohemagglutinin-stimulated human peripheral blood lymphocytes (PBLs) and fresh monocyte-macrophage (Mono/MF) cultures were prepared and utilized in antiviral assays as previously described (Rice et al., Proc. Nat'l. Academy Science, USA 90: 9721-9724, (1993)); (Cushman et al., J. Med. Chem. 37: 3040-3050, (1994)). EC50 values for these cultures indicate the drug concentration that provided a 50% reduction in viral p24 production. […] The compounds can be synthesized according to the teachings of Singh et al., Sulfur Letters 8: 107-114, (1988). The 4,5-cis-dihydroxy(1,1-dioxy-1,2,-dithiohexane) compound (NSC 624151) has been abbreviated as 624151 for convenience. MT-2, MT-4, U1, HeLa-CD4-LTR-β-gal and 174xCEM cells were obtained from the AIDS Research and Reference Program (National Institute of Allergy and Infectious Disease, National Institutes of Health, Bethesda, Md. USA), as were the HIV-2MS and the AZT-resistant HIV-1G910-6 isolates. […]

[1] = system: monocyte-macrophage (Mo/M.PHI.) cultures; experiment: cytotoxicity in monocyte-macrophage cultures; assay type: cell-based
Protocol: Initial anti-HIV screening was performed with CEM-SS cells and HIV-1RFusing the XTT cytoprotection assay as previously described (Weislow et al., J. National Cancer Inst. 81: 577-586, (1989)). HIV-1 isolates included common laboratory stains (RF, IIIB and MN), as well as a panel of HIV-1 clinical isolates (Cushman et al., J. Med. Chem. 37: 3040-3050, (1994)). The pyridone-resistant HIV-1A17 isolate (Nunberg et al., J. Virol., 65: 4887-4892 (1991)) was obtained from Emilio Emini at Merck Sharpe and Dohme Laboratories. Phytohemagglutinin-stimulated human peripheral blood lymphocytes (PBLs) and fresh monocyte-macrophage (Mono/MF) cultures were prepared and utilized in antiviral assays as previously described (Rice et al., Proc. Nat'l. Academy Science, USA 90: 9721-9724, (1993)); (Cushman et al., J. Med. Chem. 37: 3040-3050, (1994)). EC50 values for these cultures indicate the drug concentration that provided a 50% reduction in viral p24 production. […] The compounds can be synthesized according to the teachings of Singh et al., Sulfur Letters 8: 107-114, (1988). The 4,5-cis-dihydroxy(1,1-dioxy-1,2,-dithiohexane) compound (NSC 624151) has been abbreviated as 624151 for convenience. MT-2, MT-4, U1, HeLa-CD4-LTR-β-gal and 174xCEM cells were obtained from the AIDS Research and Reference Program (National Institute of Allergy and Infectious Disease, National Institutes of Health, Bethesda, Md. USA), as were the HIV-2MS and the AZT-resistant HIV-1G910-6 isolates.

HIV-1 p7NC protein = target: T1, HIV-1 p7NC protein (Human immunodeficiency virus type 1 group M subtype B, UniProt P04591); experiment: Trp37 zinc finger fluorescence assay (zinc ejection from p7NC); assay type: biochemical; conditions: in words; for zinc ejection: FIG. 1(A)
T1 construct: recombinant HIV-1 p7NC protein
Protocol: Fluorescence measurements of the Trp^37 residue in the C-terminal zinc finger of the recombinant HIV-1 p7NC protein were performed as previously described (Rice et al., Science 270:1194, 1995). The p7NC protein was prepared at 20 μg/ml in 10 mM sodium phosphate buffer (pH 7.0), treated with 25 μM of each compound, then after indicated time intervals the samples were diluted 1/10 in 10 mM sodium phosphate buffer (pH 7.0) and the fluorescence intensity measured. The excitation and emission wavelengths utilized with the Shimadzu RF5000 spectrofluorimeter were 280 nm and 351 nm, respectively. In an alternate assay, the zinc-selective fluorescent probe N-(6-methoxy-8quinolyl-)-p-toluenesulfonamide (TSQ, Molecular Probes, Eugene, Oreg.) originally described by Fredrickson (J. Neurosci. Meth. 20:91, 1987) was utilized to measure zinc released from the p7NC protein in vitro. Briefly, 2 μM recombinant HIV-1 p7NC protein in 10 mM sodium phosphate buffer, pH 7.0, 10% glycerol was treated with 10 μM 624151 ([…] total volume in 96-well plates), and the time-dependent increase in fluorescence was measured on a Labsystems Fluoroskan II (360 nm excitation filter and 460 nm emission filter) over a period of 2 hours. Induction of alterations of p7NC proteins within intact virions involved treatment of HIV-1MN for 1 hour at 37° C. with 25 μM test compound. Samples were centrifuged 1 hour at 4° C. under 18,000×g to pellet the virus from the drug. Virus pellets were resolved by non-reducing SDS-PAGE and analyzed by immunoblot using monospecific rabbit antisera to the purified p7NC protein.
^b The percent decrease in RFU was calculated based on measurement of
the initial fluorescence of the p7NC protein before and 10 minutes after
treatment with the 25 μM of compound at ambient temperature.
The ability of 624151 to chemically interact with the zinc fingers of the HIV-1 p7NC protein was initially determined by a fluorescence assay (Rice et al., Science 270:1194-1197, (1995)) that measures a loss in intrinsic fluorescence of the tryptophan (Trp^37) residue in the second finger of the protein that occurs upon loss of zinc from the finger (Summers et al., Protein Sci. 1:563, 1992). […] As the 624151 modifies the zinc finger thiolates and the zinc is ejected over time, the metal is bound by the TSQ fluorochrome (FIG. 1(B)).
Sodium Phosphate buffer, pH 7.0 in 1 ml was treated with 25 μM of
compound. At indicated times, the mixture was diluted 1/10 and the
relative fluorescence units (RFU) measured in a Shimadzu RF5000
spectrofluorimeter with […] and Em = 351 mn. Following
loss of zinc from the Cterminal zinc finger, the Trp37 residue folds away
from the # aqueous environment and experiences a loss of fluorescence.

[2] = CEM-SS cells, HIV-1RF, read-out: XTT Assay EC50
[3] = Human immunodeficiency virus 1, read-out: Mo/M.PHI. EC50

| Structure (SMILES) | IC50 (CEM-SS cells) | IC50 [1] | EC50 (HIV-1ADA; [3]) | further results |
| --- | --- | --- | --- | --- |
| O=S1(=O)C[C@@H](O)[C@H](O)CS1 (relative stereo) [NSC 624152] | 135 µM | > 100 µM |  | EC50 (HIV-1RF; [2]): 13.1 µM; antiviral activity / efficacy (HIV-1RF): only a slight reduction in the antiviral efficacy; EC50 (HIV-1ADA; Human immunodeficiency virus 1, HIV-1ADA, monocyte/macrophage cultures, 50% reduction in p24, read-out: Mo/M.PHI. EC50): 9.1 µM; reactivity with the zinc fingers (HIV-1 p7NC protein): equivalent reactivity with the zinc fingers |
| [O-][S+]1C[C@@H](O)[C@H](O)CS1 (relative stereo) [NSC 663603] | 59.3 µM | > 100 µM | > 100 µM |  |
| O[C@@H]1CSSC[C@H]1O (relative stereo) [NSC 663605] | > 200 µM | > 100 µM | > 100 µM |  |
| [O-][S+]1C[C@@H](O)[C@@H](O)CS1 (relative stereo) [NSC 667090] | 103 µM | > 100 µM | > 100 µM | antiviral activity / efficacy (HIV-1RF): complete abolition of antiviral activity; reactivity with the zinc fingers (HIV-1 p7NC protein): essentially a complete loss of reactivity with the zinc fingers |
| CC(=O)O[C@H]1CSS(=O)(=O)C[C@H]1OC(C)=O (relative stereo) [NSC 667091] | 9.2 µM | > 100 µM | 25 µM |  |
| CC(=O)O[C@@H]1CSSC[C@H]1OC(C)=O (relative stereo) [NSC 667092] | > 200 µM | > 100 µM | > 100 µM | antiviral activity / efficacy (HIV-1RF): complete abolition of antiviral activity; reactivity with the zinc fingers (HIV-1 p7NC protein): essentially a complete loss of reactivity with the zinc fingers |
| CC(=O)O[C@@H]1CS[S+]([O-])C[C@H]1OC(C)=O (relative stereo) [NSC 667094] | 22.1 µM | > 100 µM | 5.5 µM |  |
| Nc1ccn([C@H]2CC[C@@H](CO)O2)c(=O)n1 [DDC, reference compound] |  |  |  | zinc ejection (HIV-1 p7NC protein): do not |
| CSC[C@H](NC(=O)COc1cccc2cnccc12)C(=O)N[C@@H](Cc1ccccc1)[C@H](O)C(=O)N1CSC[C@H]1C(=O)NC(C)(C)C [KNI-272, reference compound] |  |  |  | zinc ejection (HIV-1 p7NC protein): do not |
| [O-][S+]1CCCCS1 (stereo not drawn) [NSC 56224] | 26.2 µM | > 100 µM | > 100 µM |  |
| OCC1(CO)CSSC1 [NSC 72270] | > 200 µM | > 100 µM | > 100 µM |  |
| NC(=O)NN=C1CSSC1 [NSC 208744] | 127 µM |  |  | EC50 (HIV-1RF; [2]): 28.7 µM |
| O=C1NC(=O)C2(CSSC2)N1 [NSC 208750] | 24.8 µM |  |  | EC50 (HIV-1RF; [2]): 1.83 µM |
| NC1(C(=O)O)CSSC1 [NSC 212561] | 10.7 µM |  |  | EC50 (HIV-1RF; [2]): 3.06 µM |
| O=S1(=O)CCCCS1 [NSC 627175] | 5.7 µM | > 100 µM | 25 µM |  |
| O=C(O)CCCCC1CCSS1 (stereo not drawn) [NSC 628502] | > 1210 µM |  |  | EC50 (HIV-1RF; read-out: XTT Assay EC50, CEM-SS cells, HIV-1RF): 590 µM |
| CC(=O)OCC1(COC(C)=O)CSSC1 [NSC 660167] | > 200 µM | > 100 µM | > 100 µM |  |
| CC(=O)OCC1(COC(C)=O)CSS(=O)(=O)C1 [NSC 661126] | 30.3 µM | > 100 µM | 21 µM | EC50 (HIV-1RF; [2]): 9.8 µM |
| O=S1(=O)CC(CO)(CO)CS1 [NSC 661127] | 378 µM |  |  | EC50 (HIV-1RF; [2]): 34 µM |
| [O-][S+]1CC(CO)(CO)CS1 (stereo not drawn) [NSC 661753] | > 200 µM | > 100 µM | 46 µM |  |
| CC(=O)OCC1(COC(C)=O)CS[S+]([O-])C1 (stereo not drawn) [NSC 661754] | 14.3 µM | > 100 µM | > 100 µM |  |
| O[C@@H]1CSSC[C@@H]1O [NSC 667089] | 20.1 µM | > 100 µM | > 100 µM |  |
| CC(=O)O[C@H]1CSSC[C@H]1OC(C)=O [NSC 667093] | > 200 µM | > 100 µM | > 100 µM |  |
| CC(C)OC(=O)c1cc(NC(=S)OC(C)C)ccc1Cl [UC38, reference compound] |  |  |  | zinc ejection (HIV-1 p7NC protein): do not |
